Assays:
[1] = compound: C1CC(C1)(C(=O)[O-])C(=O)[O-].N.N.[Pt+2] [Carboplatin]; conditions: max 10 µM
Procedure, shortened: (§1)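 After 24 hours at 37°C and 5% CO2 in 1536-well plates holding 7.5 μl of DMEM/F12 or RPMI with 10% FBS, cancer cell lines were dosed for 72 hours, with final DMSO typically 0.2%. Viability came from CellTiter-Glo 2.0 luminescence, scaled between the means of blank wells and DMSO wells. A non-linear mixed effects model fitted a two-parameter logistic curve to each dose response to give the single-agent IC50.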

[2] = compound: C1CN(CCC1(C(=O)N[C@@H](CCO)C2=CC=C(C=C2)Cl)N)C3=NC=NC4=C3C=CN4 [AZD5363]; conditions: max 10 µM
Procedure, shortened: as §1

[3] = compound: C=CCn1c(=O)c2cnc(Nc3ccc(N4CCN(C)CC4)cc3)nc2n1-c1cccc(C(C)(C)O)n1 [AZD1775]; conditions: max 3 µM
Procedure, shortened: as §1

[4] = compound: CC(=O)Nc1cccc(-n2c(=O)n(C3CC3)c(=O)c3c(Nc4ccc(I)cc4F)n(C)c(=O)c(C)c32)c1 [Trametinib]; conditions: max 1 µM
Procedure, shortened: as §1

[5] = compound: CC(=O)O[C@H]1C(=O)[C@@]2(C)[C@H]([C@H](OC(=O)c3ccccc3)[C@]3(O)C[C@H](OC(=O)[C@H](O)[C@@H](NC(=O)c4ccccc4)c4ccccc4)C(C)=C1C3(C)C)[C@]1(OC(C)=O)CO[C@@H]1C[C@@H]2O [Paclitaxel]; conditions: max 3 µM
Procedure, shortened: as §1

[6] = compound: CC(=O)c1c(C)c2cnc(Nc3ccc(N4CCNCC4)cn3)nc2n(C2CCCC2)c1=O [Palbociclib]; conditions: max 10 µM
Procedure, shortened: as §1

[7] = compound: CC(C)n1c(=O)n(C)c2cnc3cc(F)c(-c4ccc(OCCCN5CCCCC5)nc4)cc3c21 [AZD1390]; conditions: max 0.3 µM
Procedure, shortened: as §1

[8] = compound: CC1(C)CCC(CN2CCN(c3ccc(C(=O)NS(=O)(=O)c4ccc(NCC5CCOCC5)c([N+](=O)[O-])c4)c(Oc4cnc5[nH]ccc5c4)c3)CC2)=C(c2ccc(Cl)cc2)C1 [Venetoclax]; conditions: max 1 µM
Procedure, shortened: as §1

[9] = compound: CC1=C(C(=CC=C1)Cl)NC(=O)C2=CN=C(S2)NC3=CC(=NC(=N3)C)N4CCN(CC4)CCO [Dasatinib]; conditions: max 2 µM
Procedure, shortened: as §1

[10] = compound: CC1=CN2[C@@H](C1)C=NC3=CC(=C(C=C3C2=O)OC)OCCCCCOC4=C(C=C5C(=C4)N=C[C@@H]6CC(=CN6C5=O)C)OC [SG3199]; conditions: max 0.001 µM
Procedure, shortened: as §1

[11] = compound: CCN(CCO)CCCOc1ccc2c(Nc3cc(CC(=O)Nc4cccc(F)c4)[nH]n3)ncnc2c1 [AZD2811]; conditions: max 1 µM
Procedure, shortened: as §1

[12] = compound: CCc1c2c(nc3ccc(O)cc13)-c1cc3c(c(=O)n1C2)COC(=O)[C@]3(O)CC [SN-38]; conditions: max 0.3 µM
Procedure, shortened: as §1

[13] = compound: CN(C)CCCOc1ccc(-c2ccc3ncc4c(c3c2)n(C2CCOCC2)c(=O)n4C)cn1 [AZD0156]; conditions: max 3 µM
Procedure, shortened: as §1

[14] = compound: CN(CC[C@H](CSC1=CC=CC=C1)NC2=C(C=C(C=C2)S(=O)(=O)NC(=O)C3=CC=C(C=C3)N4CCC(CC4)[C@H](C5=CC=CC=C5C6=CC=C(C=C6)Cl)O)S(=O)(=O)C(F)(F)F)CCO [AZD4320]; conditions: max 1 µM
Procedure, shortened: as §1

[15] = compound: COc1cc(Nc2ncc3c(n2)-c2ccc(Cl)cc2C(c2c(F)cccc2OC)=NC3)ccc1C(=O)O [Alisertib]; conditions: max 10 µM
Procedure, shortened: as §1

[16] = compound: COc1cc([C@@H]2c3cc4c(cc3[C@@H](O[C@@H]3O[C@@H]5CO[C@@H](C)O[C@H]5[C@H](O)[C@H]3O)[C@H]3COC(=O)[C@H]23)OCO4)cc(OC)c1O [Etoposide]; conditions: max 10 µM
Procedure, shortened: as §1

[17] = compound: COc1cc2ncnc(Nc3ccc(F)c(Cl)c3)c2cc1OCCCN1CCOCC1 [Gefitinib]; conditions: max 10 µM
Procedure, shortened: as §1

[18] = compound: COc1cccc(OCCCN)c1-c1cc(Nc2cnc(C#N)cn2)n[nH]1 [Prexasertib]; conditions: max 1 µM
Procedure, shortened: as §1

[19] = compound: COc1cccc2c1C(=O)c1c(O)c3c(c(O)c1C2=O)C[C@@](O)(C(=O)CO)C[C@@H]3O[C@H]1C[C@H](N)[C@H](O)[C@H](C)O1 [Doxorubicin]; conditions: max 1 µM
Procedure, shortened: as §1

[20] = compound: COc1nnc2ccc(N3CCC(c4ccc(OCCN5CCN(C)C(=O)[C@H]5C)cc4)CC3)nn12 [AZD5153]; conditions: max 1 µM
Procedure, shortened: as §1

[21] = compound: CS(=O)(=O)CCNCc1ccc(-c2ccc3ncnc(Nc4ccc(OCc5cccc(F)c5)c(Cl)c4)c3c2)o1 [Lapatinib]; conditions: max 10 µM
Procedure, shortened: as §1

[22] = compound: C[C@@H](Nc1cc(F)cc(F)c1)c1cc(C(=O)N(C)C)cc2c(=O)cc(N3CCOCC3)oc12 [AZD8186]; conditions: max 10 µM
Procedure, shortened: as §1

[23] = compound: C[C@@H](Oc1cc(-c2cnn(C3CCNCC3)c2)cnc1N)c1c(Cl)ccc(F)c1Cl [Crizotinib]; conditions: max 10 µM
Procedure, shortened: as §1

[24] = compound: C[C@@H](c1ccc2nccn2c1)n1nnc2ncc(-c3cnn(C)c3)nc21 [Savolitinib]; conditions: max 1 µM
Procedure, shortened: as §1

[25] = compound: C[C@@H]1COCCN1C2=NC(=NC(=C2)C3(CC3)[S@](=N)(=O)C)C4=C5C=CNC5=NC=C4 [AZD6738]; conditions: max 10 µM
Procedure, shortened: as §1

[26] = compound: Cc1c2c(nn1C)CSCc1cc(n(C)n1)CSc1cc(c3ccccc3c1)OCCCc1c(C(=O)O)n(C)c3c-2c(Cl)ccc13 [AZD5991]; conditions: max 1 µM
Procedure, shortened: as §1

[27] = compound: Cc1cc2ncnn2cc1Nc1ncc2c(n1)n(C1CCOCC1)c(=O)n2C [AZD7648]; conditions: max 10 µM
Procedure, shortened: as §1

[28] = compound: Cc1nc(-c2cn3c(n2)-c2ccc(-c4cnn(C(C)(C)C(N)=O)c4)cc2OCC3)n(C(C)C)n1 [Taselisib]; conditions: max 10 µM
Procedure, shortened: as §1

[29] = compound: Cn1cnc2c(F)c(Nc3ccc(Br)cc3Cl)c(C(=O)NOCCO)cc21 [Selumetinib]; conditions: max 10 µM
Procedure, shortened: as §1

[30] = compound: N#Cc1cnc(Nc2cc(NC[C@H]3CNCCO3)c(C(F)(F)F)cn2)cn1 [SRA737]; conditions: max 10 µM
Procedure, shortened: as §1

[31] = compound: NC1(c2ccc(-c3nc4ccn5c(=O)[nH]nc5c4cc3-c3ccccc3)cc2)CCC1 [MK-2206]; conditions: max 10 µM
Procedure, shortened: as §1

[32] = compound: Nc1ccn([C@@H]2O[C@H](CO)[C@@H](O)C2(F)F)c(=O)n1 [Gemcitabine]; conditions: max 0.3 µM
Procedure, shortened: as §1

[33] = compound: O=C(Nc1ccc2[nH]nc(-c3ccncc3)c2c1)[C@@H]1CCN(CC(=O)N2CCN(c3ccc(-c4ncccn4)cc3)CC2)C1; conditions: max 5 µM
Procedure, shortened: as §1

[34] = compound: O=C(c1cc(Cc2n[nH]c(=O)c3ccccc23)ccc1F)N1CCN(C(=O)C2CC2)CC1 [Olaparib]; conditions: max 10 µM
Procedure, shortened: as §1

[35] = compound: O=c1[nH]cc(F)c(=O)[nH]1 [5-Fluorouracil]; conditions: max 20 µM
Procedure, shortened: as §1

| Cell Line | IC50, cell viability 72 h [1] [µM] | IC50, cell viability 72 h [2] [µM] | IC50, cell viability 72 h [3] [µM] | IC50, cell viability 72 h [4] [µM] | IC50, cell viability 72 h [5] [µM] | IC50, cell viability 72 h [6] [µM] | IC50, cell viability 72 h [7] [µM] | IC50, cell viability 72 h [8] [µM] | IC50, cell viability 72 h [9] [µM] | IC50, cell viability 72 h [10] [µM] | IC50, cell viability 72 h [11] [µM] | IC50, cell viability 72 h [12] [µM] | IC50, cell viability 72 h [13] [µM] | IC50, cell viability 72 h [14] [µM] | IC50, cell viability 72 h [15] [µM] | IC50, cell viability 72 h [16] [µM] | IC50, cell viability 72 h [17] [µM] | IC50, cell viability 72 h [18] [µM] | IC50, cell viability 72 h [19] [µM] | IC50, cell viability 72 h [20] [µM] | IC50, cell viability 72 h [21] [µM] | IC50, cell viability 72 h [22] [µM] | IC50, cell viability 72 h [23] [µM] | IC50, cell viability 72 h [24] [µM] | IC50, cell viability 72 h [25] [µM] | IC50, cell viability 72 h [26] [µM] | IC50, cell viability 72 h [27] [µM] | IC50, cell viability 72 h [28] [µM] | IC50, cell viability 72 h [29] [µM] | IC50, cell viability 72 h [30] [µM] | IC50, cell viability 72 h [31] [µM] | IC50, cell viability 72 h [32] [µM] | IC50, cell viability 72 h [33] [µM] | IC50, cell viability 72 h [34] [µM] | IC50, cell viability 72 h [35] [µM] |
| --- | --- | --- | --- | --- | --- | --- | --- | --- | --- | --- | --- | --- | --- | --- | --- | --- | --- | --- | --- | --- | --- | --- | --- | --- | --- | --- | --- | --- | --- | --- | --- | --- | --- | --- | --- |
| BFTC-905 (Bladder Carcinoma) | > 10 | > 10 | 0.68 | 0.0864 | 0.00602 | > 10 | > 0.3 | > 1 | 1.53 | > 0.001 | > 1 | 0.00455 | > 3 | > 1 | 1.25 | 1.16 | > 10 | 0.117 | 0.196 | 0.173 | > 10 | > 10 | 5.24 | > 1 | 3.79 | > 1 | > 10 | 1.39 | 6.56 | > 10 | > 10 | 0.0107 | 1.05 | > 10 | > 20 |
| BL-41 (Burkitt's Lymphoma) | > 10 | > 10 | 0.264 | > 1 | 0.00391 | > 10 | > 0.3 | > 1 | > 2 | > 0.001 | 0.048 | 0.00217 | > 3 | > 1 | 0.0285 | 0.342 | > 10 | 0.00367 | 0.0377 | 0.046 | 6.1 | > 10 | 2.44 | > 1 | 0.618 | 0.0482 | > 10 | > 10 | > 10 | 2 | > 10 | 0.0085 | > 5 | > 10 | > 20 |

Source: the supplement of paper PMC11061612
